According to patent publication US6358947B1 (American Home Products Corporation, priority 1999, dated 2002):
Read-outs that look alike come from different tables or passages of the source.

What was measured:
Assay type in all cases: cell-based
human PR [1] = molecular target: T1, human PR (Homo sapiens, UniProt P06401); experiment: Cotransfection assay, PR agonist, CV-1 cells; conditions: for PR Agonist CV-1 Cells Efficacy: percent maximal response relative to reference agonist
T1 sequence (P06401 1-933): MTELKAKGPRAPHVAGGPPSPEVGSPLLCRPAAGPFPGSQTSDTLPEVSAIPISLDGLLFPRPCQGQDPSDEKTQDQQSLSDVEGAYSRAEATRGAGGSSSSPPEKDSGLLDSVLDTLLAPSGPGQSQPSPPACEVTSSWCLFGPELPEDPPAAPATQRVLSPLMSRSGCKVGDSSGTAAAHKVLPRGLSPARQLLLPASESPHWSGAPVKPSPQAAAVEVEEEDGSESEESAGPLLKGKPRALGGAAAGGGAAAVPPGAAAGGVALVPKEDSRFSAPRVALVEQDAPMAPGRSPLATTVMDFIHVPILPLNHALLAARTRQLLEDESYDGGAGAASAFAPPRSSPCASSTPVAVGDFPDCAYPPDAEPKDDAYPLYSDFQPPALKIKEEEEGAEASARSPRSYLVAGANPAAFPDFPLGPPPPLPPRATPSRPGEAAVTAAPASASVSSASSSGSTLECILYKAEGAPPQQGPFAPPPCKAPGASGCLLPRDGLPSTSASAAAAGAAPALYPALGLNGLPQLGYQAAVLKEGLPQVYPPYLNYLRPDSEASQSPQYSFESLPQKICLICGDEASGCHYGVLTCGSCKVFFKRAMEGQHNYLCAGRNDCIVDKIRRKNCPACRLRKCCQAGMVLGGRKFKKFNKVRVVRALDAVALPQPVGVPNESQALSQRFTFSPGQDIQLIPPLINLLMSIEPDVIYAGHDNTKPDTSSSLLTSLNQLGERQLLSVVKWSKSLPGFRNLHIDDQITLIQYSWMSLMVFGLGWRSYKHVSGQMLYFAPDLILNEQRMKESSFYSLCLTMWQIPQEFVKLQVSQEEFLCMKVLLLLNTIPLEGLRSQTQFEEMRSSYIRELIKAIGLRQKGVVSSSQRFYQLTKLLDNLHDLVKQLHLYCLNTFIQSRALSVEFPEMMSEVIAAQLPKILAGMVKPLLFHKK

human PR [2] = molecular target: T1, human PR; experiment: Cotransfection assay, PR antagonist, CV-1 cells; conditions: for IC50: Table 1, read-out: PR Antagonist CV-1 Cells Potency; for PR Antagonist CV-1 Cells Efficacy: percent maximal response relative to reference antagonist
hER [3] = molecular target: T2, hER (Homo sapiens, UniProt P03372); experiment: Cotransfection assay, ER agonist; conditions: read-out: ER Potency Agon
T2 sequence (P03372 1-595): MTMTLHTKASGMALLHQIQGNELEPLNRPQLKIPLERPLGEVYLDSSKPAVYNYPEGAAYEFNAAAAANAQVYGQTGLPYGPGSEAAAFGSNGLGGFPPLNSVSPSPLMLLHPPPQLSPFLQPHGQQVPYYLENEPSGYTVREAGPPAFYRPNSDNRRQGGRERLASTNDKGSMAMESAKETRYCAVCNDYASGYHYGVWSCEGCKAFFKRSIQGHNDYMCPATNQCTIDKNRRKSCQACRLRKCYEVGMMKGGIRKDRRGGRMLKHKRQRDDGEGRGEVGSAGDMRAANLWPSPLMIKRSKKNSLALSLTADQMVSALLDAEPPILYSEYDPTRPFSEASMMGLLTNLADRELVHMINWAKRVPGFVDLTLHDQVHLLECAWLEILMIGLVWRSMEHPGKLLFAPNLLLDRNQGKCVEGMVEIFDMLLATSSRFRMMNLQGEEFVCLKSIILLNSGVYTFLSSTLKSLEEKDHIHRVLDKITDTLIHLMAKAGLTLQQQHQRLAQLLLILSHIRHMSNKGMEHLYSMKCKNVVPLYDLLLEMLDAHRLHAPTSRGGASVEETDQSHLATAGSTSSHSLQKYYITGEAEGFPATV

hER [4] = molecular target: T2, hER; experiment: Cotransfection assay, ER antagonist; conditions: read-out: ER Potency Antag
hGR = molecular target: T3, hGR (Homo sapiens, UniProt P04150); experiment: Cotransfection assay, GR antagonist; conditions: read-out: GR Potency Antag
T3 sequence (P04150 1-777): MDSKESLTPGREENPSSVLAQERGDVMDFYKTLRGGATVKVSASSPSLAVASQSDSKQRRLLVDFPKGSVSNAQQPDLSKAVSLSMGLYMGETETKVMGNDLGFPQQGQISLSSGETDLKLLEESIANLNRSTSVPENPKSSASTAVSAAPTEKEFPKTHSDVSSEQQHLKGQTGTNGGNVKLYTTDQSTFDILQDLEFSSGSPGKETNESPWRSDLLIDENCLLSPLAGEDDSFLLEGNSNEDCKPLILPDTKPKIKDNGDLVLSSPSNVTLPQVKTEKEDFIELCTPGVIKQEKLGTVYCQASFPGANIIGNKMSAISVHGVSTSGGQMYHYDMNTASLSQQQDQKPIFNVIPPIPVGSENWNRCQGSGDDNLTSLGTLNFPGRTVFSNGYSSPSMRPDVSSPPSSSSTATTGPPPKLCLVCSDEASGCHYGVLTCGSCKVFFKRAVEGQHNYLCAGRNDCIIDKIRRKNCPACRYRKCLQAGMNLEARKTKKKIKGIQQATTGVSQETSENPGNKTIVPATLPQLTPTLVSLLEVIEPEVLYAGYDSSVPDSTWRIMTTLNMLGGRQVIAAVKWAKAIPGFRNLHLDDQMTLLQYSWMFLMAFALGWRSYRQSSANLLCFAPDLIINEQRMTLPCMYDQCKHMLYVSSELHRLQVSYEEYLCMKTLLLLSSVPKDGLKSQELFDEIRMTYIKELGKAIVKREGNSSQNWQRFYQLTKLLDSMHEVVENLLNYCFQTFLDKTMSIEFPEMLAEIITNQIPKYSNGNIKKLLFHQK

[5] = CV-1 cells, Table 1, read-out: PR Agonist CV-1 Cells Potency

| EC50 (human PR [1]; [5]) [nM] | PR Agonist CV-1 Cells Efficacy (human PR [1]; CV-1 cells) | IC50 (human PR [2]) [nM] | PR Antagonist CV-1 Cells Efficacy (human PR [2]) [%] | EC50 (hER [3]) [nM] | IC50 (hER [4]) [nM] | IC50 (hGR) [nM] | EC50 (human PR [1]; Table 2, read-out: PR Potency Agon) [nM] | SMILES |
| --- | --- | --- | --- | --- | --- | --- | --- | --- |
| 2500 | 30% | 25 | 95 | > 10000 | > 10000 | > 10000 |  | CC1(C)OC(=O)Nc2ccc3c(c21)COc1c(F)cccc1-3 [Compound 14, 7-Fluoro-4,4-dimethyl-5H-chromeno[3,4-f]-1,3-benzo[d]oxazin-2-one] |
| 500 | 30% | 20 | 80 | > 10000 | > 10000 | > 10000 |  | CC1(C)OC(=O)Nc2ccc3c(c21)COc1c(F)cc(Br)cc1-3 [Compound 20, 9-Bromo-7-fluoro-4,4-dimethyl-5H-chromeno[3,4-f]-1,3-benzo[d]oxazin-2-one] |
| 623 | 46% | 23 | 87 | > 10000 | > 10000 | > 10000 |  | CC1(C)OC(=O)Nc2ccc3c(c21)COc1c(F)cc(C=NO)cc1-3 [Compound 25, 7-fluoro-9-hydroxyiminomethyl-4,4-dimethyl-5H-chromeno[3,4-f]-1,3-benzo[d]oxazin-2-one] |
| 1000 | 60% | 16 | 68 | > 10000 | > 10000 | > 10000 |  | CC1(C)OC(=O)Nc2ccc3c(c21)COc1c(F)cc(C#N)cc1-3 [Compound 26, 9-cyano-7-fluoro-4,4-dimethyl-5H-chromeno[3,4-f]-1,3-benzo[d]oxazin-2-one] |

| SMILES | EC50 (human PR [1]; [5]) [nM] | PR Agonist CV-1 Cells Efficacy (human PR [1]; CV-1 cells) | IC50 (human PR [2]) [nM] | PR Antagonist CV-1 Cells Efficacy (human PR [2]) [%] | EC50 (hER [3]) [nM] | IC50 (hER [4]) [nM] | IC50 (hGR) [nM] | EC50 (human PR [1]; Table 2, read-out: PR Potency Agon) [nM] |
| --- | --- | --- | --- | --- | --- | --- | --- | --- |
| CC1(C)OC(=O)Nc2ccc3c(c21)COc1c(F)cc(C=O)cc1-3 [Compound 24, 7-fluoro-9-formyl-4,4-dimethyl-5H-chromeno[3,4-f]-1,3-benzo[d]oxazin-2-one] | > 10000 | na (na = not active (i.e. efficacy of <20 and potency of >10,000)) | 98 | 84 | > 10000 | > 10000 | > 10000 | > 10000 |
